Experimental data as given in patent US20220257557A1, “PHARMACEUTICAL COMPOSITION FOR PREVENTING OR TREATING NEUROLOGICAL DISEASES” (GLACEUM INC., priority 2019, published 2022).

Assays:
[1] = target: T1, rePON1 (PON1, paraoxonase 1) (Homo sapiens, UniProt P27169); test: Prevention of inhibition of PON1 activity by oxidized linolenic acid (TBBL substrate); format: biochemical; conditions: for extent to which inhibition of rePON1 activity was prevented, compared with glabridin: compound 30 μM vs glabridin 30 μM; for extent to which inhibition of rePON1 activity was prevented, compared with glabridin / inhibition of rePON1 activity by oxidized linolenic acid: result in words; for inhibition of rePON1 activity by oxidized linolenic acid: compound 30 μM; for activity at 30 µM: 30 μM compound with rePON1 30 min, then oxidized linolenic acid 2 h, TBBL substrate, normal control 100, negative control 73.64
T1 construct: purchased Thermo Corp. RP-75678
T1 sequence (P27169 whole entry): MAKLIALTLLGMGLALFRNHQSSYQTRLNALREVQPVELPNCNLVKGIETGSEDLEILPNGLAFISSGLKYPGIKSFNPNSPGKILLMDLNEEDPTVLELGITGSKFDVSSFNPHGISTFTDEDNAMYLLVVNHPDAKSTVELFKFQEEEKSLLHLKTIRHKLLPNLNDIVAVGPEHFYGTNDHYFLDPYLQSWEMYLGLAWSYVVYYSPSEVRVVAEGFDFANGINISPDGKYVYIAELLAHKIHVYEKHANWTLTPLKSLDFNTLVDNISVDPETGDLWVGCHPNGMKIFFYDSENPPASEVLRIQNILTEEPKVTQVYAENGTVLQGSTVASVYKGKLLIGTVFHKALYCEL
Method: Based on the fact that the activity of PON1 is inhibited when PON1 is treated with oxidized linolenic acid, an experiment was conducted to confirm the prevention of inhibition of PON1 activity. The activity of PON1 was measured using TBBL (5-thiobutyl butyrolactones) as a substrate.
Specifically, after 9.6 μl of 50 mM Tris-HCl containing 1 mM CaCl2 was added to each of […] Eppendorf tubes, 0.2 μl of each of the compounds of Formulas III-1, IV-1, V-1, IV-2, V-2, II-1, IV-3, V-3, III-2, IV-4, V-4, II-2 and III-3 and glabridine was added to each tube so that the concentration thereof was 30 μM. 0.2 μl of rePON1 (RP-75678, Thermo Corp.) was added to each of the 12 tubes and mixed. Thereafter, each of the mixtures was allowed to react at room temperature for 30 minutes, and 0.5 μl of 1 mM oxidized linolenic acid (OX-LA) dissolved in DMSO was added thereto in order to inhibit rePON1 activity, followed by reaction at room temperature for 2 hours, thus preparing solutions (I).
25 μl of 0.5 mM DTNB dissolved in 50 mM Tris-HCl containing 1 mM CaCl2 was dispensed into each well of a 384-well plate, and then 10 μl of each of the solutions (I) was dispensed into each well, and 20 μl of 2 mM TBBL dissolved in 50 mM Tris-HCl containing 1 mM CaCl2 was added to each well, thus preparing samples. The absorbance of each of the samples at 420 nm was measured using a spectrometer (SpectraMax M2) at 37° C. every 2 minutes for 1 hour.
In addition, a negative control was prepared in the same manner as the above-described method, except that, for the preparation of a solution, 0.2 μl of DMSO was added instead of the compounds of Formulas III-1, IV-1, V-1, IV-2, V-2, II-1, IV-3, V-3, III-2, IV-4, V-4, II-2 and III-3 and glabridin. Furthermore, a normal control was prepared in the same manner as the above-described method, except that, for the preparation of a solution, 0.2 μl of DMSO was added instead of the above-described compounds and glabridin and that oxidized linolenic acid was not added. The absorbance of each of the negative control and the normal control was measured.
Using SoftMax Pro software, the activity of PON1 was calculated from the absorbance using the following Equation 1, and the results are shown in Table 1 below.
Activity=(absorbancesample−absorbanceblank)/(absorbancePON1−absorbanceblank)*100 [Equation 1]

BV2 cells [2] = test: iNOS and COX-2 expression after LPS (Western blot); format: cell-based; conditions: 3 h pretreatment (Table 3 amounts), LPS 1 μg/ml 24 h
Method: (§1) RAW264.7 cells or BV2 cells (5×10^5 cells/well) were dispensed in DMEM containing 10% heat-inactivated FBS, 10 IU/mL penicillin G, 100 μg/mL streptomycin and 2 mM L-glutamine and cultured in a 5% CO2 incubator at a temperature of 37° C.
(§2) The compound of Formula III-3, III-4, V-3, III-1, IV-1, V-1, IV-2, V-2 or II-2 was added to the RAW264.7 cells or BV2 cells, and the toxicities of the compounds were determined by MTT assay.
(§3) The pretreated cells of Experimental Example 4-1 were treated with 1 μg/ml of LPS for 24 hours, and then the expression levels of iNOS and COX-2 were observed through Western blot, and the production of NO and PGE2 was measured.

RAW264.7 cells [3] = test: iNOS and COX-2 expression after LPS (Western blot); format: cell-based; conditions: 3 h pretreatment (Table 3 amounts), LPS 1 μg/ml 24 h
Method: as §1, §2, §3

BV2 cells [4] = test: NO and PGE2 production after LPS; format: cell-based; conditions: 3 h pretreatment (Table 3 amounts), LPS 1 μg/ml 24 h
Method: as §1, §2, §3

RAW264.7 cells [5] = test: NO and PGE2 production after LPS; format: cell-based; conditions: 3 h pretreatment (Table 3 amounts), LPS 1 μg/ml 24 h
Method: as §1, §2, §3

BV2 cells [6] = test: IL-1β, IL-6 and TNF-α mRNA expression after LPS (RT-PCR); format: cell-based; conditions: 3 h pretreatment (Table 3 amounts), LPS 1 μg/ml 6 h
Method: as §1, §2
(§4) The pretreated cells of Experimental Example 4-1 were treated with 1 μg/ml of LPS for 6 hours, and then the mRNA expression level of the cytokine IL-1β, IL-6 or TNF-α produced in the inflammatory response was analyzed using RT-PCR.

RAW264.7 cells [7] = test: as above; format: cell-based; conditions: 3 h pretreatment (Table 3 amounts), LPS 1 μg/ml 6 h
Method: as §1, §2, §4

RAW264.7 cells [8] = test: Transcription of NF-κB protein (p65, p50) into nucleus after LPS (Western blot); format: cell-based; conditions: 3 h pretreatment (Table 3 amounts), LPS 1 μg/ml 1 h
Method: RAW264.7 cells or BV2 cells (5×10^5 cells/well) were dispensed in DMEM containing 10% heat-inactivated FBS, 10 IU/mL penicillin G, 100 μg/mL streptomycin and 2 mM L-glutamine and cultured in a 5% CO2 incubator at a temperature of 37° C. […]
(§5) The pretreated cells of Experimental Example 4-1 were treated with 1 μg/ml of LPS for 1 hour, and then the level of transcription of NF-κB protein into the nucleus of each of p65 and p50 was analyzed through Western blot.

BV2 cells [9] = test: as above; format: cell-based; conditions: 3 h pretreatment (Table 3 amounts), LPS 1 μg/ml 1 h
Method: as §1, §2, §5

| Structure (SMILES) | extent to which inhibition of rePON1 activity was prevented, compared with glabridin [1] | inhibition of rePON1 activity by oxidized linolenic acid [1] | expression level of COX-2 (BV2 cells [2]) | expression level of iNOS (BV2 cells [2]) | expression level of COX-2 (RAW264.7 cells [3]) | expression level of iNOS (RAW264.7 cells [3]) | production of NO (BV2 cells [4]) | production of PGE2 (BV2 cells [4]) | production of NO (RAW264.7 cells [5]) | production of PGE2 (RAW264.7 cells [5]) | mRNA expression level of IL-1β (BV2 cells [6]) | mRNA expression level of IL-6 (BV2 cells [6]) | mRNA expression level of TNF-α (BV2 cells [6]) | mRNA expression level of IL-1β (RAW264.7 cells [7]) | mRNA expression level of IL-6 (RAW264.7 cells [7]) | mRNA expression level of TNF-α (RAW264.7 cells [7]) | level of transcription of NF-κB protein into the nucleus, p50 (RAW264.7 cells [8]) | level of transcription of NF-κB protein into the nucleus, p65 (RAW264.7 cells [8]) | level of transcription of NF-κB protein into the nucleus, p50 (BV2 cells [9]) | activity at 30 µM [1] [%] | also measured |
| --- | --- | --- | --- | --- | --- | --- | --- | --- | --- | --- | --- | --- | --- | --- | --- | --- | --- | --- | --- | --- | --- |
| CCc1ccc(C2COc3c(ccc4c3CCC(C)(C)O4)C2)c(O)c1 (centres unmarked) [Formula III-3, 2-(8,8-dimethyl-2,3,4,8,9,10-hexahydropyrano[2,3-f]chromen-3-yl)-5-ethylphenol] | greater | prevented | concentration-dependently decreased | concentration-dependently decreased | concentration-dependently decreased | concentration-dependently decreased | concentration-dependently decreased | concentration-dependently decreased | concentration-dependently decreased | concentration-dependently decreased | concentration-dependently decreased | concentration-dependently decreased | concentration-dependently decreased | concentration-dependently decreased | concentration-dependently decreased | concentration-dependently decreased | concentration-dependently decreased | concentration-dependently decreased | concentration-dependently decreased |  | level of transcription of NF-κB protein into the nucleus, p65 (BV2 cells [9]): concentration-dependently decreased |
| CC1(C)C=Cc2c(ccc3c2OCC(c2ccc(O)cc2O)=C3)O1 [Formula II-1, 4-(8,8-dimethyl-2,8-dihydropyrano[2,3-f]chromen-3-yl)benzene-1,3-diol] | greater | prevented |  |  |  |  |  |  |  |  |  |  |  |  |  |  |  |  |  | 85.9 |  |
| CCCOc1ccc([C@H]2COc3c(ccc4c3CCC(C)(C)O4)C2)c(O)c1 [Formula V-2, (S)-2-(8,8-dimethyl-2,3,4,8,9,10-hexahydropyrano[2,3-f]chromen-3-yl)-5-propoxyphenol] | greater | prevented | concentration-dependently decreased | concentration-dependently decreased | concentration-dependently decreased | concentration-dependently decreased | concentration-dependently decreased | concentration-dependently decreased | concentration-dependently decreased | concentration-dependently decreased | concentration-dependently decreased | concentration-dependently decreased | concentration-dependently decreased | concentration-dependently decreased | concentration-dependently decreased | concentration-dependently decreased | concentration-dependently decreased | concentration-dependently decreased | concentration-dependently decreased | 89.4 | level of transcription of NF-κB protein into the nucleus, p65 (BV2 cells [9]): concentration-dependently decreased |
| CCOc1cc(O)ccc1C1COc2c(ccc3c2CCC(C)(C)O3)C1 (centres unmarked) [Formula III-2, 4-(8,8-dimethyl-2,3,4,8,9,10-hexahydropyrano[2,3-f]chromen-3-yl)-3-ethoxyphenol] | greater | prevented |  |  |  |  |  |  |  |  |  |  |  |  |  |  |  |  |  | 83.8 |  |
| CCCc1ccc([C@@H]2COc3c(ccc4c3CCC(C)(C)O4)C2)c(O)c1 [Formula IV-3, (R)-2-(8,8-dimethyl-2,3,4,8,9,10-hexahydropyrano[2,3-f]chromen-3-yl)-5-propylphenol] | greater | prevented |  |  |  |  |  |  |  |  |  |  |  |  |  |  |  |  |  | 90.6 |  |
| CCCCOc1ccc([C@H]2COc3c(ccc4c3CCC(C)(C)O4)C2)c(O)c1 [Formula V-4, (S)-2-(8,8-dimethyl-2,3,4,8,9,10-hexahydropyrano[2,3-f]chromen-3-yl)-5-butoxyphenol] | greater | prevented |  |  |  |  |  |  |  |  |  |  |  |  |  |  |  |  |  | 94.9 |  |
| CCCc1ccc(C2COc3c(ccc4c3CCC(C)(C)O4)C2)c(O)c1 (centres unmarked) [Formula III-4, 2-(8,8-dimethyl-2,3,4,8,9,10-hexahydropyrano[2,3-f]chromen-3-yl)-5-propylphenol] |  |  | concentration-dependently decreased | concentration-dependently decreased | concentration-dependently decreased | concentration-dependently decreased | concentration-dependently decreased | concentration-dependently decreased | concentration-dependently decreased | concentration-dependently decreased | concentration-dependently decreased | concentration-dependently decreased | concentration-dependently decreased | concentration-dependently decreased | concentration-dependently decreased | concentration-dependently decreased | concentration-dependently decreased | concentration-dependently decreased | concentration-dependently decreased |  | level of transcription of NF-κB protein into the nucleus, p65 (BV2 cells [9]): concentration-dependently decreased |
| CCCCOc1ccc([C@@H]2COc3c(ccc4c3CCC(C)(C)O4)C2)c(O)c1 [Formula IV-4, (R)-2-(8,8-dimethyl-2,3,4,8,9,10-hexahydropyrano[2,3-f]chromen-3-yl)-5-butoxyphenol] | greater | prevented |  |  |  |  |  |  |  |  |  |  |  |  |  |  |  |  |  | 94.1 |  |
